This note sets out measurements from patent publication EP0570197A1, “Hydroxylamine derivatives” (ZENECA LIMITED, priority 1992, dated 1993).

Experiment [1] addresses T1, 5-LO (Homo sapiens, UniProt P09917).
T1 construct: incubating a test compound with heparinised human blood, prior to challenge with the calcium ionophore A23187; endogenous in cells; host or cells: human whole blood (blood cells), heparinised
T1 sequence (P09917 1-674): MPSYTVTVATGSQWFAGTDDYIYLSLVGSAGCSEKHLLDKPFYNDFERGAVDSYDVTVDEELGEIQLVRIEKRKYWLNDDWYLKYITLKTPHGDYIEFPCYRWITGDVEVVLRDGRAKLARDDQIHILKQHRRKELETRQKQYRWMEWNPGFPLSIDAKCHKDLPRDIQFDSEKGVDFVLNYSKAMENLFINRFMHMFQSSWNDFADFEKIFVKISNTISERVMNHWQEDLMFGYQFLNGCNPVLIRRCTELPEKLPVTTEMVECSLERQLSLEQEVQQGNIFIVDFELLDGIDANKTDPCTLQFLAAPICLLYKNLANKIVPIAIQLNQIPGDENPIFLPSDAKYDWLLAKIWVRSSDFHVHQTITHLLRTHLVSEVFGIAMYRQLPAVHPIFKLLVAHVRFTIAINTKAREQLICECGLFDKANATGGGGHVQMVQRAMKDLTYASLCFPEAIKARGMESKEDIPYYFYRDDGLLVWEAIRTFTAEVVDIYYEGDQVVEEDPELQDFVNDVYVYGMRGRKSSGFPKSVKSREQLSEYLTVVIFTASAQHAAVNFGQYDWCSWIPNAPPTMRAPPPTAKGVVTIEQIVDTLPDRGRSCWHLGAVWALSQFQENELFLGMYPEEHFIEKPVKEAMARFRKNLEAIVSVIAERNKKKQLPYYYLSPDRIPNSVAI
Nature of the experiment: Test a): in vitro heparinised human blood challenged with calcium ionophore A23187, radioimmunoassay of LTB₄. The experiment is classed as cell-based. The settings on record: heparinised human blood, A23187 challenge; read-out: IC₅₀ against LTB₄ in test a). An excerpt:
As stated previously, the compounds of the formula I are inhibitors of the enzyme 5-LO. […] J. Pharmacol., 1985, 84, 34P) which involve the use of a protein-LTB₄ conjugate produced using the procedure of Young et alia (Prostaglandins, 1983, 26(4), 605-613). The effects of a test compound on the enzyme cyclooxygenase (which is involved in the alternative metabolic pathway for arachidonic acid and gives rise to prostaglandins, thromboxanes and related metabolites) may be measured at the same time using the specific radioimmunoassay for thromboxane B₂(TxB₂) described by Carey and Forder (see above). This test provides an indication of the effects of a test compound against 5-LO and also cyclooxygenase in the presence of blood cells and proteins. It permits the selectivity of the inhibitory effect on 5-LO or cyclooxygenase to be assessed. • b) An ex vivo assay system, which is a variation of test a) above, involving administration to a group of rats of a test compound (usually orally as the suspension produced when a solution of the test compound in dimethylsulphoxide is added to carboxymethylcellulose), blood collection, heparinisation, challenge with A23187 and radioimmunoassay of LTB₄ and TxB₂. This test provides an indication of the bioavailability of a test compound as an inhibitor of 5-LO or cyclooxygenase. • c) An in vivo system involving measuring the effects of a test compound administered orally against the liberation of LTB₄ induced by zymosan within an air pouch generated within the subcutaneous tissue of the back of male rats. The rats are anaesthetised and air pouches are formed by the injection of sterile air (20 ml). A further injection of air (10 ml) is similarly given after 3 days. At 6 days after the initial air injection the test compound is administered (usually orally as the suspension produced when a solution of the test compound in dimethylsulphoxide is added to hydroxypropylmethylcellulose), followed by the intrapouch injection of zymosan (lml of a 1% suspension in physiological saline). […]

The test system of experiment [2] is 5-LO. Kind of experiment: Test c): in vivo zymosan-induced LTB₄ liberation in a subcutaneous air pouch. To be noted: rats killed after 3 hours. On the set-up: species or system male rats. From the text: As stated previously, the compounds of the formula I are inhibitors of the enzyme 5-LO. […] J. Pharmacol., 1985, 84, 34P) which involve the use of a protein-LTB₄ conjugate produced using the procedure of Young et alia (Prostaglandins, 1983, 26(4), 605-613). The effects of a test compound on the enzyme cyclooxygenase (which is involved in the alternative metabolic pathway for arachidonic acid and gives rise to prostaglandins, thromboxanes and related metabolites) may be measured at the same time using the specific radioimmunoassay for thromboxane B₂(TxB₂) described by Carey and Forder (see above). This test provides an indication of the effects of a test compound against 5-LO and also cyclooxygenase in the presence of blood cells and proteins. It permits the selectivity of the inhibitory effect on 5-LO or cyclooxygenase to be assessed. • b) An ex vivo assay system, which is a variation of test a) above, involving administration to a group of rats of a test compound (usually orally as the suspension produced when a solution of the test compound in dimethylsulphoxide is added to carboxymethylcellulose), blood collection, heparinisation, challenge with A23187 and radioimmunoassay of LTB₄ and TxB₂. […]

Regarding `COC1(c2cc(F)cc(Sc3ccc(C(C)ONC(C)=O)cc3)c2)CCOCC1` (stereo not drawn) [Example 2, 4-[5-fluoro-3-(4-methoxytetrahydropyran-4-yl)phenylthio]-α-methylbenzyl acetohydroxamate], the IC50 in experiment [1] was determined as 190 nM. On the same count and under the same terms, the value for `COC1(c2cc(F)cc(Sc3ccc(C(C)ONC(N)=O)cc3)c2)CCOCC1` (stereo not drawn) [Example 4, N-{4-[5-fluoro-3-(4-methoxytetrahydropyran-4-yl)phenylthio]-α-methylbenzyloxy}urea] was 310 nM. For the molecule `CCN(CC)OC(C)c1ccc(Sc2cc(F)cc(C3(OC)CCOCC3)c2)cc1` (stereo not drawn) [Example 5, N,N-diethyl-O-{4-[5-fluoro-3-(4-methoxytetrahydropyran-4-yl)phenylthio]-α-methylbenzyl}hydroxylamine], the IC50 in experiment [1] amounted to 150 nM. Further, the “oral ED₅₀ versus LTB₄ in test c)” value in experiment [2] is reported as “approximately 1.5 mg/kg”.
